Data reported in ChEMBL document CHEMBL1201862, “PubChem BioAssay data set” (2004).
Activity calls are given as the source filed them.

Experiments:
cells [1] = format: functional, cell-based
cells [2] = format: functional, cell-based; remark: listed apart in the source
[3] = growth suppression of PTEN-null colon cells, dose response, cell-based, HCT116 PTEN knockout (AID 1047); format: functional;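 also: HCT116 colon tumor cells with PTEN knocked out; cells exposed to compound for 60 hours before readout; potency for loss of cell viability measured by luminescence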
[4] = growth suppression of beta-catenin-knockout colon cells, dose response, cell-based, HCT116, human colon tumor (AID 1045); format: functional;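 also: HCT116 colon tumor cells with beta catenin knocked out; cells exposed to compound for 60 hours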
[5] = target: FAD-linked sulfhydryl oxidase ALR (Homo sapiens, UniProt P55789); experiment: inhibitors of human ALR sulfhydryl oxidase, dose response, biochemical, H2O2 detection, luminescence, cherry-pick (AID 493248)
Sequence of FAD-linked sulfhydryl oxidase ALR (P55789 whole entry): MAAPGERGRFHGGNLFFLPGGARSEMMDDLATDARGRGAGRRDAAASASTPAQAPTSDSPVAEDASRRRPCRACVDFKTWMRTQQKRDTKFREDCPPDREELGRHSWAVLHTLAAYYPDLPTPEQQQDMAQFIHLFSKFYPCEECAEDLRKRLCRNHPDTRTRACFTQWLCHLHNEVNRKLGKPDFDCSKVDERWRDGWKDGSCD

[6] = C. albicans growth with fluconazole, confirmation, fluorescence, retest (AID 2467); format: functional, cell-based
[7] = NIH-3T3 fibroblast cytotoxicity, dose response, cytotoxicity control, cell-based, fluorescence, Alamar Blue, secondary assay (AID 2327); format: functional;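 also: NIH-3T3 mouse fibroblasts cultured with fluconazole at 8 µg/mL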
Cytochrome P450 3A4 = Cytochrome P450 3A4 (Homo sapiens, UniProt P08684);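 also: CYP3A4 tested as one member of a cytochrome P450 panel screen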
Sequence of Cytochrome P450 3A4 (P08684 whole entry): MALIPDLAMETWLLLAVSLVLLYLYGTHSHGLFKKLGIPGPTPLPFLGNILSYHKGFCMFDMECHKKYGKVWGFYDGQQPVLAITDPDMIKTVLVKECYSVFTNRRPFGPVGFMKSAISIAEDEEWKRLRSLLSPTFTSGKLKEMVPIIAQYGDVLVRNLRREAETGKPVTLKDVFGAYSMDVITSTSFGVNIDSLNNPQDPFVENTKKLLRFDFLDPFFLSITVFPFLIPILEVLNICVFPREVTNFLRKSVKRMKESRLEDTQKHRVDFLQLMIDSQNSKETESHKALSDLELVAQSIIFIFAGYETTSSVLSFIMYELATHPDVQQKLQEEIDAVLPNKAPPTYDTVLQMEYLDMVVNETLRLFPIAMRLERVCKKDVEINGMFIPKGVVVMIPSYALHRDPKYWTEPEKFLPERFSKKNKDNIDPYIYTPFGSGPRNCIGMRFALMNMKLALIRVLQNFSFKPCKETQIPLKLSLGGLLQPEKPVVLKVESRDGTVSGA

Cytochrome P450 1A2 = target: T1, Cytochrome P450 1A2 (Homo sapiens, UniProt P05177);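 also: PubChem cytochrome P450 panel assay, CYP1A2 panel member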
T1 sequence (P05177 whole entry): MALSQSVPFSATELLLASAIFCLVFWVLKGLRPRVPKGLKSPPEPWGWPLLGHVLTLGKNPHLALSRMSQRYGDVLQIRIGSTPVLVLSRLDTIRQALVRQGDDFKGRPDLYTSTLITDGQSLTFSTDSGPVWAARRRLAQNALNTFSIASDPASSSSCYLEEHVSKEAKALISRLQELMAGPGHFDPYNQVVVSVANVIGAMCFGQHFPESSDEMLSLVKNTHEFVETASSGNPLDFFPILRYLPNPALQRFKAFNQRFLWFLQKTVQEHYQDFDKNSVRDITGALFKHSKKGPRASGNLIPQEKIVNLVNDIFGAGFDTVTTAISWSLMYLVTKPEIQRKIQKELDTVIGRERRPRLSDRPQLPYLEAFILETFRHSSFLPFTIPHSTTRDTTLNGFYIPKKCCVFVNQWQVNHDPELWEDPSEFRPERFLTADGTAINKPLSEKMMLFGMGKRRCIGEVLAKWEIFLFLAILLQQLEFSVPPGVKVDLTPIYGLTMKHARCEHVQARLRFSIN

Cytochrome P450 2C9 = Cytochrome P450 2C9 (Homo sapiens, UniProt P11712)
Sequence of Cytochrome P450 2C9 (P11712 whole entry): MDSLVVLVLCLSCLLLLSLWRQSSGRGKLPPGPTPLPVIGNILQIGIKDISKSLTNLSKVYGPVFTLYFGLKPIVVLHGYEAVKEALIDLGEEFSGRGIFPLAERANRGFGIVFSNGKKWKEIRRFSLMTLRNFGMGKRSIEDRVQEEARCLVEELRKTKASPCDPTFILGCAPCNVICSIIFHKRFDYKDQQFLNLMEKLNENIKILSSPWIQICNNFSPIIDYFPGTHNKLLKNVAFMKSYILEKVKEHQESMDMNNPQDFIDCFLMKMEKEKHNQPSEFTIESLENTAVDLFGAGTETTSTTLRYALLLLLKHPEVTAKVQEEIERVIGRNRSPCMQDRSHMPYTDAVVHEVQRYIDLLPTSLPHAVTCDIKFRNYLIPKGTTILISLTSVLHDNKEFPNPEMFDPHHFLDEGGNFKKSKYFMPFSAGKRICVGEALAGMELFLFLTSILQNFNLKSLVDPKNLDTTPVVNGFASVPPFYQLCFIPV

Paired box protein Pax-8 = Paired box protein Pax-8 (Homo sapiens, UniProt Q06710); experiment: inhibitors of PAX8-driven TPO luciferase reporter, dose response, RMG-I cells, cherry-pick (AID 687027); format: functional, cell-based;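 also: luciferase reporter driven by Pax8 target thyroperoxidase promoter measured by SteadyGlo luminescence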
Sequence of Paired box protein Pax-8 (Q06710 whole entry): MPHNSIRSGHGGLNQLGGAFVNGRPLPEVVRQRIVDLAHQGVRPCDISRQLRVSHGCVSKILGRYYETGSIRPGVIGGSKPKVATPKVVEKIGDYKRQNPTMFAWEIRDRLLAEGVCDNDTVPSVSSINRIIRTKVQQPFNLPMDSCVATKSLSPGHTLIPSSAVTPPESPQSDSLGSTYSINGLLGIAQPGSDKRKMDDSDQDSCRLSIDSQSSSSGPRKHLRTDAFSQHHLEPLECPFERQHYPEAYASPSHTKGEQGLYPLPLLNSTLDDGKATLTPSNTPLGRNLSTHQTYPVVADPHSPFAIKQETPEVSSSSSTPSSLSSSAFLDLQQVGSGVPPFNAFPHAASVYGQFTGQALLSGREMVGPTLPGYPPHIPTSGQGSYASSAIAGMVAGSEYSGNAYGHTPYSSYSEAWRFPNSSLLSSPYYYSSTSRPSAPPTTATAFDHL

[8] = Luminescence Cell-Based Dose Retest to Confirm Inhibitors of Cancer Stem Cells. [Related pubchem assays (depositor defined):AID2717, AID2721]; format: functional; details: Homo sapiens
[9] = microbe, parasite or virus in culture; format: functional; details: Mycobacterium tuberculosis
INS1 = experiment: beta cell apoptosis inhibitors, cytokine rescue, dose response, luminescence, retest (AID 449756); format: functional, cell-based; details: Rattus norvegicus;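 also: cell death triggered by IL-1 beta plus TNF-alpha plus IFN-gamma mixture; protective hits raise ATP signal compared with cytokine alone wells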
[10] = inhibitors of SNCA 5'UTR-driven reporter translation, confirmation, H4 neuroglioma cells, luminescence (AID 1988); format: functional, cell-based
[11] = inhibitors of firefly luciferase expression or activity, dose response, H4 neuroglioma cells, luminescence (AID 1990); format: functional, cell-based
[12] = Luminescence Cell-Based Dose Response HTS to Identify Inhibitors of 5'UTR Stem-Loop Driven Prion Protein mRNA Translation in H4 Neuroglioblastoma Cells. [Related pubchem assays: 1827 (Project Summary), 1813 (Primary HTS)]; format: functional
H4 = experiment: Luminescence Cell-Based Dose Response HTS to Identify Activators of 5'UTR Stem-Loop Driven Prion Protein mRNA Translation in H4 Neuroglioblastoma Cells. [Related pubchem assays: 1829 (Project Summary), 1814 (Primary HTS)]; format: functional; details: Homo sapiens
[13] = Luminescence Cell-Based Dose Response HTS to Identify Activators of Luciferase Translation or Activity in H4 […] Cells. [Related pubchem assays: 1829 (Project Summary), 1814 (Primary HTS)]; format: functional
[14] = target: T2, Rac GTPase-activating protein 1 (Homo sapiens, UniProt Q9H0H5); experiment: MgcRacGAP GTPase-activating activity inhibitors, confirmation, biochemical, ADP Hunter fluorescence, primary and confirmatory (AID 624330); format: functional
T2 sequence (Q9H0H5 whole entry): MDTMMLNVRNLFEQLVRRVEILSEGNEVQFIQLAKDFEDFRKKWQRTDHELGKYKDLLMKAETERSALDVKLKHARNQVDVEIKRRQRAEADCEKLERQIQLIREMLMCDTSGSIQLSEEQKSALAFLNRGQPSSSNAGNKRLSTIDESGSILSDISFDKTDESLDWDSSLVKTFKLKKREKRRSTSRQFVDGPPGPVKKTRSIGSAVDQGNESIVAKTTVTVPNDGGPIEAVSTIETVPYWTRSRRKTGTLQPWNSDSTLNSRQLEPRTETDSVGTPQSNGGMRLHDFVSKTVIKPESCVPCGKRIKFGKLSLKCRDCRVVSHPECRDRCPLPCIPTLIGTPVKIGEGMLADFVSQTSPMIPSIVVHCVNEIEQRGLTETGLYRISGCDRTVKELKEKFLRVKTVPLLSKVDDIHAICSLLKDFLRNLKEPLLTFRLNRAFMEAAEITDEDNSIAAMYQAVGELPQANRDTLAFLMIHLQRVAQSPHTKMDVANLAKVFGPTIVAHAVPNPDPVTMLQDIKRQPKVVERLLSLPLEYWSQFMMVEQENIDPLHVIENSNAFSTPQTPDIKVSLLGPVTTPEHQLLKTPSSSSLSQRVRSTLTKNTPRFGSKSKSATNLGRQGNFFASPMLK

[15] = target: T3, RNA-binding protein pos-1 (Caenorhabditis elegans, UniProt G5EF15); experiment: inhibitors of POS-1/mex-3 RNA binding, dose response, biochemical, fluorescence polarization (AID 1964);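 also: purified POS-1 fused to maltose binding protein made in E. coli; potency of compounds blocking POS-1 binding to fluorescent RNA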
T3 sequence (G5EF15 whole entry): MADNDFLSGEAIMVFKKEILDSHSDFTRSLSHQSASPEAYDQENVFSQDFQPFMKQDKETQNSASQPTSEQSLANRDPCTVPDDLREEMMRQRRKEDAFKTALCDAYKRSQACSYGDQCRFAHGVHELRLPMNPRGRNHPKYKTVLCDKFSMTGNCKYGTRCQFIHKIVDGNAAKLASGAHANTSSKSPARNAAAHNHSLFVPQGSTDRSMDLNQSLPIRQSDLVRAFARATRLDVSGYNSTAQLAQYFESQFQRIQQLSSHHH

COc1ccc(C(=O)CSc2nncn2C)cc1
EC50 (cells [1]): > 350 µM (not active)
EC50 (cells [2]): > 350 µM (not active)

CCN(CC)S(=O)(=O)c1cc(-c2nnc(-c3ccc(Br)cc3)o2)ccc1Cl
EC50 [3]: 28.1 µM (active)
EC50 [4]: 21.5 µM (active)

COc1ccc(CSC2=NCCN2)cc1Br
AC50 [5]: 0.007 µM (active)

c1ccc(-c2ccccc2OCCCN2CCCCCC2)cc1
EC50 [6]: > 38 µM (not active)
EC50 [7]: > 150 µM (inactive)

N#CCC(=O)Nc1sc2c(c1C(N)=O)CCCC2
AC50 [5]: 14.4 µM (active)

CCn1c(C)cc(/C=C2\SC(=O)N(CC(=O)Nc3ccc(C)c(C)c3)C2=O)c1C
AC50 (Cytochrome P450 3A4): 1 µM (inconclusive)
EC50 [3]: 210 µM (active)
EC50 [4]: 24.1 µM (active)
AC50 (Cytochrome P450 1A2): 8.91 µM (inconclusive)
AC50 (Cytochrome P450 2C9): 1.58 µM (inconclusive)

CC(C)[C@H](NC(=O)c1ccco1)C(=O)OCc1cc(=O)n2c(n1)sc1ccccc12
EC50 (cells [1]): > 350 µM (not active)
EC50 (cells [2]): > 350 µM (not active)

O=C1CC(NNc2ccccc2)C(=O)N1c1cccc(Cl)c1 (configuration not stated)
AC50 [5]: 0.319 µM (active)

Cc1cccc(NC(=O)CC23CC4CC(C2)CC(n2nnc(C)n2)(C4)C3)c1
AC50 (Paired box protein Pax-8): 37.1 µM (active)

COC(=O)c1ccc(/C=C/c2c(-c3ccsc3)oc3ccc(N4CCOCC4)cc23)cc1
AC50 [8]: 3.33 µM (active)
CC50 [9]: > 40 µM (active)

Cc1c(CCC(=O)N[C@@H](C)C(=O)O)c(=O)oc2c(C)c3oc4c(c3cc12)CCCC4
AC50 [5]: 3.72 µM (active)

c1ccc(CSc2nnc(-c3cccs3)n2Cc2ccco2)cc1
EC50 [6]: > 38 µM (not active)
EC50 [7]: > 150 µM (inactive)

CC(OC(=O)COc1ccc(Nc2ccccc2)cc1)C(=O)N(C)c1ccccc1 (configuration not stated)
EC50 (cells [1]): 30.5 µM (active)
EC50 (cells [2]): > 350 µM (not active)

Cc1ccc2c(c1)C1NC(S)=NC(C)(O2)C1C(=O)Nc1ccc(Cl)cc1 (configuration not stated)
EC50 (cells [1]): > 350 µM (not active)
EC50 (cells [2]): > 350 µM (not active)

CCc1ccc(-c2csc3[n+]2CCN3C(C)=O)cc1
AC50 [5]: 3.62 µM (active)

CCc1cc2c(=O)c(-c3ccc4c(c3)OCCO4)coc2cc1OS(C)(=O)=O
EC50 [3]: 14.6 µM (active)
EC50 [4]: 18 µM (active)

CCOCCCNS(=O)(=O)c1ccc(NC(=O)N2c3ccccc3Sc3ccccc32)cc1
CC50 [9]: 36.6 µM (active)

O=c1[nH]c(=O)n(Cc2ccccc2)c2nc(-c3ccc(Oc4ccc(F)cc4)c([N+](=O)[O-])c3)n(CCO)c12
EC50 [3]: 7.51 µM (active)
EC50 [4]: 8.03 µM (active)
CC50 [9]: 13.9 µM (active)

CC(C(=O)Nc1ccc(S(N)(=O)=O)cc1)N1CCc2ccccc21 (configuration not stated)
AC50 [5]: 1.8 µM (active)

O=C1/C(=C\c2cccnc2)CN(Cc2ccccc2)C/C1=C\c1cccnc1
AC50 (INS1): 4.87 µM (active)
AC50 [8]: 2.06 µM (active)
EC50 [3]: 1.29 µM (active)
EC50 [4]: 0.429 µM (active)

COc1ccc(CNS(=O)(=O)c2cc3c4c(c2)C(C)C(=O)N4CCC3)cc1 (configuration not stated)
EC50 (cells [1]): > 350 µM (not active)
EC50 (cells [2]): > 350 µM (not active)

NC(=NO)c1ccc(NC(=O)c2ccc(Br)o2)cc1
AC50 [5]: 0.16 µM (active)

CN1CCN(C2Cc3ccc(F)cc3Sc3cc(F)c(Cl)cc32)CC1 (configuration not stated)
EC50 (cells [1]): 20.1 µM (active)
EC50 [10]: > 60 µM (not active)
EC50 [11]: > 120 µM (not active)
AC50 [8]: 6.08 µM (active)
EC50 [12]: > 120 µM (not active)
EC50 (cells [2]): > 350 µM (not active)

O=C(COC(=O)c1ccccc1[N+](=O)[O-])c1ccc2c(c1)OCO2
EC50 (H4): 36 µM (active)
EC50 [13]: > 120 µM (not active)

CCOC(=O)c1c(NC(=O)CN2CCN(C(=O)c3ccco3)CC2)sc2c1CCCC2
EC50 [6]: > 38 µM (not active)
EC50 [3]: 35.1 µM (active)
EC50 [7]: > 150 µM (inactive)
EC50 [4]: 28.7 µM (active)

CC(C)n1cnc2c(NCc3ccccc3)cc(Cc3ccc(F)cc3)cc21
AC50 [8]: 1.78 µM (active)
CC50 [9]: > 40 µM (active)

O=C(CCc1nnc(-c2ccccc2)o1)c1ccc(Cl)cc1
EC50 (cells [2]): > 350 µM (not active)

Nc1ccc(NC(=O)c2ccco2)c(Cl)c1
AC50 [5]: 1.72 µM (active)

Oc1ccc(/C=N/Nc2[nH]cnc3ncnc2-3)cc1
IC50 [14]: 11.6 µM (active)
EC50 [15]: > 300 µM (not active)

C[C@H]1CCCCO[C@@H](CN(C)C(=O)Nc2ccc(C(F)(F)F)cc2)[C@@H](C)CN([C@@H](C)CO)C(=O)c2cc(NS(=O)(=O)c3cn(C)cn3)ccc2O1
AC50 (Paired box protein Pax-8): 17.9 µM (active)

CCCC(=O)Nc1ccc2c(c1)C(=O)N(C)C[C@@H](OC)[C@H](C)CN(Cc1ccc(-c3ccccn3)cc1)[C@H](C)CO2
AC50 (Paired box protein Pax-8): 28.7 µM (active)

C[C@@H]1CN([C@H](C)CO)C(=O)c2cc(NC(=O)Nc3ccc(C(F)(F)F)cc3)ccc2O[C@@H](C)CCCCO[C@H]1CN(C)C(=O)Nc1ccc(F)cc1
AC50 (Paired box protein Pax-8): 1.41 µM (active)

CC1CC/C(=N/Nc2ccccc2)C(=O)N1 (configuration not stated)
AC50 [5]: 0.623 µM (active)

Cc1nnc(S)n1/N=C/c1cccc(OCc2ccccc2)c1
CC50 [9]: > 40 µM (active)

Cc1oc(-c2ccc(Cl)cc2)cc1/C(O)=C(C#N)/C=N/c1cccc(OC(F)(F)F)c1
EC50 (cells [1]): > 350 µM (not active)
EC50 (cells [2]): > 350 µM (not active)

Cc1cc2c(s1)Nc1ccccc1N=C2N1CCN(C)CC1 [OLANZAPINE]
AC50 [5]: 0.369 µM (active)
